Laboratory results reported in patent publication US10617679B2, “Deuterated compounds and medical uses thereof” (JINGLUWEIDAI INFORMATION CONSULTING SERVICE (BEIJING) CO. …, priority 2016, dated 2020).

What was measured:
rat formalin model = assay: Analgesic effects of intragastric administration in a rat formalin model; type: in vivo, SD rats; conditions: mean ± SD; for Reaction time for phase I: licking time 0-5 min after formalin; for Reaction time for Phase II: licking time 15-30 min after formalin
Procedure: SD rats (male, weight 160-180 g) were randomly divided into groups with 6 rats in each group. After the rats were intragastrically administered different doses separately, they were placed in PVC observation boxes for habituation. After 30 min, the rats were injected subcutaneously with 20 μL of 2.7% formalin solution into the plantar surface of the left hind paws, and quickly put back in the PVC observation boxes for observation. The length of time the rats spent licking the injected-formalin paws at the early response (0-5 min, phase I) and the late response (15-30 min, Phase II) was recorded, and the analgesic activities of the test compounds were evaluated according to the length of time the rats spent licking during the period of observation. The experimental data were expressed as mean±standard deviation. The shorter the licking time, the better the analgesic effect of the compound.

[1] = test system: rat chronic sciatic nerve compression neuralgia model; assay: Analgesic effects of intragastric administration in a rat chronic sciatic nerve compression neuralgia model; type: in vivo, SD rats; conditions: pain threshold 1 hour after administration
Procedure: SD rats (male, weight 160-180 g) were anesthetized using sodium pentobarbital (40 mg/kg), of which the sciatic nerves were separated in the middle segment of the right hind limbs. In the anterior segment of the sciatic nerve to be bifurcated, the sciatic nerve was separated from the surrounding tissue using a sterile glass hook. Four rings were loosely ligated with sterile chrome gut (No. 4, 0.15 mm in diameter) by an interval of 1 to 2 mm. Topically sprinkled with penicillin powder. The muscle tissue and skin were sutured. The rats were placed in a cage with cork dust. In the sham surgery group, the sciatic nerve was only exposed, and the other treatments were the same as described above. The rats after surgery were placed in a metal cage. […] The weight of the filament was recorded and set to be the threshold (in g). Meanwhile, the number of foot-lifting response to the 10 stimulations of the fiber filaments of different weights was recorded, and the highest threshold was set at 26 g.
5-6 rats in each group were intragastrically administered and the pain thresholds were measured 1 hour after administration. Statistical analysis of the thresholds was performed using non-parametric Wilcoxon 2-Sample Test and Kruskal-Wallis Test, and the data was analyzed with SASS data processing software. Analgesic percent (%)=(pain threshold after drug treatment−pain threshold before drug treatment)/(maximal analgesia threshold−pain threshold before drug treatment)[…].

[2] = test system: oxycodone-induced place preference in rats; assay: Inhibition of oxycodone-induced place preference in rats; type: in vivo, SD rats; conditions: day 10, within 15 minutes
Procedure: SD rats (male, weight 160-180 g) were placed in conditioned place preference (CPP) training boxes, where the partition door between the boxes was open. Time the rats spent in each of the boxes was recorded within 15 min in order to determine the natural tendency of the rats. The rats were then randomly divided into groups with 10 rats in each group according to the amount of time spent in the white box. The white box was a drug box, and the black box was a box with the absence of the drug. After intragastric administration with a test compound for 40 minutes, the rats were injected subcutaneously with oxycodone (2.5 mg/kg, s.c.) or saline, and immediately placed in the white box or the black box to be trained for 45 minutes, once a day for 9 consecutive days. On the 10th day, the rats were placed in the training boxes with the partition door open. The time the rats spent in the white box was recorded within 15 minutes to evaluate effects on place preference in the rats.

blood pressure in rats = assay: Effects on blood pressure in rats; type: in vivo, SD rats
Procedure: (§1) SD rats (male, weight 160-180 g) were fasted for 12 hours before administration but had free access to drinking water. The rats were randomly divided into groups. They were anesthetized with an intraperitoneal injection of 50-60 mg/kg dose of sodium pentobarbital. Each rat was fixed on the back on the surgical table. The skin was cut from the center of the neck, and an incision of about 2.5 cm was made. The subcutaneous tissue and the median muscle were separated; the trachea was fully exposed; and the endotracheal intubation was performed. The subcutaneous tissue was separated from front to back on the right side; the right common carotid artery, the vagus nerve and the sympathetic nerve were exposed; and the carotid artery cannulation was performed. Finally, the endotracheal tube and the carotid artery cannula were respectively connected to a respiration transducer and a blood pressure transducer, and then connected to a multifunctional physiological recorder. At 30 minutes after surgery, the rats were intragastrically administrated. Heart rate and blood pressure were measured at different time points after administration.

heart rate in rats = assay: Effects on heart rate in rats; type: in vivo, SD rats
Procedure: as §1

Wistar rats = assay: Evaluation of subacute toxicity (14 days, intragastric); type: in vivo; conditions: 40 mg/kg intragastric once a day for 14 days; for ALT / AST: rat
Procedure: Male Wistar rats were randomly divided into groups with 10 rats in each group and weighed. A certain concentration of a test sample was ground and suspended in a 0.5% sodium carboxymethyl cellulose solution. The sodium carboxymethyl cellulose suspension containing 40 mg/kg of the test compound and a blank sodium carboxymethyl cellulose suspension as a control were intragastrically administered, once a day for 14 consecutive days. After the last administration, the rats were fasted but had free access to drinking water for 12 hours, and then anesthetized. Their blood samples were obtained from the abdominal aortas. According to SOPB093 “Standard Operating Procedures for Serum Preparation” in National Beijing Center for Drug Safety Evaluation and Research, serum was prepared for the determination of blood biochemical and immunological indicators; according to SOPB032 “Preparation of vacuum tubes with EDTA anticoagulation”, EDTA anticoagulation was prepared for the general blood routine tests.

[3] = test dose 10 mg/kg intragastric + oxycodone 2.5 mg/kg s.c.
[4] = test dose 20 mg/kg intragastric + oxycodone 2.5 mg/kg s.c.
[5] = 20 mg/kg intragastric, time point 0
[6] = 20 mg/kg intragastric, time point 30
[7] = 20 mg/kg intragastric, time point 60
[8] = 20 mg/kg intragastric, time point 90
[9] = 20 mg/kg intragastric, time point 120
[10] = 20 mg/kg intragastric, time point 180
[11] = 40 mg/kg intragastric, time point 0
[12] = 40 mg/kg intragastric, time point 30
[13] = 40 mg/kg intragastric, time point 60
[14] = 40 mg/kg intragastric, time point 90
[15] = 40 mg/kg intragastric, time point 120
[16] = 40 mg/kg intragastric, time point 180

Q: Which results are given for `[2H]C([2H])([2H])Oc1cc2c(cc1OC)CCN1Cc3c(ccc(OC([2H])([2H])[2H])c3OC)C[C@@H]21` [Formula I6, (13a S)-3,9-dimethoxy-2,10-di-[(trideutero)-methoxy]-6,8,13,13a-tetrahydro-5H-isoquinolino[2,1-b]isoquinoline]?
A: Reaction time for phase I (rat formalin model; 20 mg/kg intragastric): 41.9 ± 9.2 s; Reaction time for Phase II (rat formalin model; 20 mg/kg intragastric): 66.7 ± 8.7 s; Reaction time for phase I (rat formalin model; 40 mg/kg intragastric): 38.6 ± 9.4 s; Reaction time for Phase II (rat formalin model; 40 mg/kg intragastric): 40.3 ± 9.0 s; Analgesic percent ([1]; 20 mg/kg intragastric): 63.80%; Analgesic percent ([1]; 40 mg/kg intragastric): 69.12%; Time spent in the drug box (Mean ± S) [2, 3]: 183.27 ± 33.97 s; Time spent in the drug box (Mean ± S) [2, 4]: 129.35 ± 23.66 s; Blood pressure (blood pressure in rats; [5]): 115.6 ± 21.9 mmHg; Blood pressure (blood pressure in rats; [6]): 108.5 ± 10.75 mmHg; Blood pressure (blood pressure in rats; [7]): 102.0 ± 11.4 mmHg; Blood pressure (blood pressure in rats; [8]): 104.7 ± 10.70 mmHg; Blood pressure (blood pressure in rats; [9]): 110.5 ± 6.8 mmHg; Blood pressure (blood pressure in rats; [10]): 106.5 ± 13.7 mmHg; Blood pressure (blood pressure in rats; [11]): 111.0 ± 21.4 mmHg; Blood pressure (blood pressure in rats; [12]): 95.4 ± 14.5 mmHg; Blood pressure (blood pressure in rats; [13]): 83.5 ± 10.30 mmHg; Blood pressure (blood pressure in rats; [14]): 85.2 ± 8.0 mmHg; Blood pressure (blood pressure in rats; [15]): 110.00 ± 11.6 mmHg; Blood pressure (blood pressure in rats; [16]): 109.5 ± 14.1 mmHg; Heart rate (heart rate in rats; [5]): 407.1 ± 43.4 BTM; Heart rate (heart rate in rats; [6]): 400.2 ± 29.4 BTM; Heart rate (heart rate in rats; [7]): 401.0 ± 28.47 BTM; Heart rate (heart rate in rats; [8]): 403.0 ± 30.2 BTM; Heart rate (heart rate in rats; [9]): 396.7 ± 36.3 BTM; Heart rate (heart rate in rats; [10]): 402.5 ± 28.8 BTM; Heart rate (heart rate in rats; [11]): 414.1 ± 37.6 BTM; Heart rate (heart rate in rats; [12]): 375.8 ± 29.3 BTM; Heart rate (heart rate in rats; [13]): 362.8 ± 20.7 BTM; Heart rate (heart rate in rats; [14]): 367.2 ± 27.0 BTM; Heart rate (heart rate in rats; [15]): 393.5 ± 34.6 BTM; Heart rate (heart rate in rats; [16]): 380.8 ± 30.5 BTM; ALT (Wistar rats): 165.3 ± 38.0 U/L; AST (Wistar rats): 251.8 ± 32.0 U/L; histopathological examination of liver (Wistar rats; result in words): vacuolar degeneration of hepatocytes; plasma ALT and AST versus control group (Wistar rats; result in words): significant increase

Q: Which results are given for `[2H]C([2H])([2H])Oc1cc2c(cc1OC([2H])([2H])[2H])[C@@H]1Cc3ccc(OC([2H])([2H])[2H])c(OC([2H])([2H])[2H])c3CN1CC2` [Formula I7, (13a S)-2,3,9,10-tetra-[(trideutero)-methoxy]-6,8,13,13a-tetrahydro-5H-isoquinolino[2,1-b]isoquinoline]?
A: Reaction time for phase I (rat formalin model; 20 mg/kg intragastric): 45.2 ± 9.9 s; Reaction time for Phase II (rat formalin model; 20 mg/kg intragastric): 58.2 ± 12.5 s; Reaction time for phase I (rat formalin model; 40 mg/kg intragastric): 35.7 ± 9.0 s; Reaction time for Phase II (rat formalin model; 40 mg/kg intragastric): 35.9 ± 13.6 s; Analgesic percent ([1]; 20 mg/kg intragastric): 70.67%; Analgesic percent ([1]; 40 mg/kg intragastric): 73.53%; Time spent in the drug box (Mean ± S) [2, 3]: 154.32 ± 21.38 s; Time spent in the drug box (Mean ± S) [2, 4]: 135.40 ± 25.09 s; Blood pressure (blood pressure in rats; [5]): 112.6 ± 27.5 mmHg; Blood pressure (blood pressure in rats; [6]): 103.4 ± 11.7 mmHg; Blood pressure (blood pressure in rats; [7]): 104.2 ± 9.8 mmHg; Blood pressure (blood pressure in rats; [8]): 102.6 ± 7.2 mmHg; Blood pressure (blood pressure in rats; [9]): 114.1 ± 11.3 mmHg; Blood pressure (blood pressure in rats; [10]): 135.3 ± 15.6 mmHg; Blood pressure (blood pressure in rats; [11]): 113.0 ± 11.4 mmHg; Blood pressure (blood pressure in rats; [13]): 83.5 ± 7.2 mmHg; Blood pressure (blood pressure in rats; [14]): 82.6 ± 6.5 mmHg; Blood pressure (blood pressure in rats; [15]): 95.3 ± 9.5 mmHg; Blood pressure (blood pressure in rats; [16]): 101.8 ± 8.1 mmHg; Heart rate (heart rate in rats; [5]): 401.5 ± 32.1 BTM; Heart rate (heart rate in rats; [6]): 380.8 ± 33.4 BTM; Heart rate (heart rate in rats; [7]): 389.5 ± 26.6 BTM; Heart rate (heart rate in rats; [8]): 405.3 ± 31.0 BTM; Heart rate (heart rate in rats; [9]): 391.0 ± 24.9 BTM; Heart rate (heart rate in rats; [10]): 398.5 ± 28.8 BTM; Heart rate (heart rate in rats; [11]): 407.9 ± 29.5 BTM; Heart rate (heart rate in rats; [12]): 366.8 ± 27.7 BTM; Heart rate (heart rate in rats; [13]): 332.6 ± 24.9 BTM; Heart rate (heart rate in rats; [14]): 343.2 ± 21.0 BTM; Heart rate (heart rate in rats; [15]): 356.7 ± 25.8 BTM; Heart rate (heart rate in rats; [16]): 362.0 ± 32.1 BTM; ALT (Wistar rats): 84.5 ± 20.6 U/L; AST (Wistar rats): 143.8 ± 21.0 U/L; plasma ALT and AST versus control group (Wistar rats; result in words): no significant difference
